From publication PMC10060354, “Discovery of a small molecule ligand of FRS2 that inhibits invasion and tumor growth” (Cellular Oncology, 2022) come the findings set out here.

Several values for one entry are separate records, joined by “and”; a condition that tells them apart may be missing. Equal values may be shown once.

One data set concerns DMS114. In words: Boyden chamber transwell migration assay. Type of data set: cell-based, human. The note with it: 24 h. The procedure: (§1) Transwells with 5 μm pore size (83.3932.500; Sarstedt) were coated with 50 µl of 0.06 μg/μl Pure Col Collagen I (5005; Advanced BioMatrix) dissolved in 100% EtOH for a final concentration of 10 μg/cm^2. 10,000 – 15,000 cells were resuspended in serum-free medium or serum-free medium containing the appropriate treatment and seeded in the upper chamber of a 24 well plate containing the coated transwell. The lower chamber was filled with either serum-free medium or serum-free medium with bFGF (25 ng/ml). Transwell migration was allowed for 24 h (DMS114) or 48 h (HCT116) at 37 °C, 5% CO2. Inserts were washed twice with PBS and the remaining non-invading cells on the upper surface of the membrane were removed using a cotton swab. The cells were fixed in 4% paraformaldehyde (28908; Thermo Fisher Scientific) in PBS for 5 min at RT. Fixed cells were washed twice with PBS and stained with DAPI for 15 min at RT. Inserts were washed three times in PBS before images of DAPI-stained nuclei were acquired using a widefield Nikon Ti2 microscope at 40 × magnification. Nuclei were counted on the membrane areas using ImageJ software and plotted on Prism 9 software (GraphPad).

Another data set concerns HCT116. Kind of data set: Boyden chamber transwell migration assay. Type of data set: cell-based, human. The note with it: 2.5, 5 or 10 µM, 48 h. The procedure: as §1
For data set [1] the following is noted: mouse, in vivo. The procedure:
[…]. Animals received an initial dose of 30 mg/kg. If the animals had no significant adverse effects within 60 min after treatment, the dose for the next cohort was increased. If one or more animals died or had significant adverse effects within 60 min after treatment, the dose for the next cohort was decreased. The testing stopped when all animals survived at the upper bound (200 mg/kg), or lower bound (3 mg/kg) had been reached. Full clinical examinations and body weight change were assessed. At each dose level, animals were observed, and mortality was noted daily after compound administration for three days. […] Body weights were recorded pre-dose and at 72 h.
The next dose level was determined by the following scheme: • 30 mg/kg, if no death, 100 mg/kg, if no death, 200 mg/kg (upper bound) • 30 mg/kg, if no death, 100 mg/kg, if death, 50 mg/kg • 30 mg/kg, if death, 10 mg/kg, if death, 3 mg/kg (lower bound) • 30 mg/kg, if death, 10 mg/kg, if no death, 17 mg/kg

Data set [2] in a line: In vivo PK of 7 (30, 100, 200 mg/kg PO), plasma and liver exposure. The arrangement: species or system ICR mice. To be noted: both sexes, ICR, mouse, plasma, 0.5 h after administration, read-out: plasma concentration reached. The procedure:
In vivo PK studies were performed by Pharmacology Discovery Services Taiwan (New Taipei City, Taiwan). 7 (30, 100, and 200 mg/kg, PO) was further administered to groups of 2 male and 2 female (23 ± 3 g) satellite ICR mice in PK study; the plasma and liver samples were harvested at 0.5 h after administration. In addition, one additional group was dosed at 30 mg/kg and the plasma samples were harvested at 1 and 2 h(s) after the treatment. The body and liver weights were recorded. The exposure levels (ng/ml or ng/g) of 7 in plasma and liver samples were then determined by Liquid Chromatograph Tandem Mass Spectrometer (LC–MS/MS), and the plasma: liver ratios were calculated.

The next data set concerns pFRS2Y436. Kind of data set: IHC of pFRS2Y436 in SKOV3 flank tumor samples. In kind it is in vivo, mice. The note with it: SKOV3 model; end of treatment. The procedure:
IHC of tumor sections was performed by Sophistolab (Muttenz, Switzerland) on a Lecia BondMax instrument using Refine HRP-Kits (Leica DS9800). All buffer-solutions were purchased from Lecia Microsystems Newcastle, Ltd and used according to the manufacturer’s guidelines. Paraffin-slides were de-waxed, pre-treated and incubated as follows: ER-solution 2 for 10 min at 95 °C, ER-solution 2 for 20 min at 100 °C and ER-solution 2 for 30 min at 100 °C. pFRS2; Rabbit anti-Phospho FRS2 (PhosphoY 436, Abcam Limited; ab193363), dilution 1:150; phospho-p44/42 MAPK (Erk1/2Thr202/Tyr204) Rabbit mAb (Cell Signaling Technology #4370), dilution 1:1600. The IHC images were captured digitally using a Nikon Epifluorescence Eclipse Ti2 equipped with a Nikon DS-Ri2 color and a Nikon DS-Qi2 monochrome camera.

The next data set has as its target T1, FRS2 (Homo sapiens, UniProt Q8WU20).
T1 construct: we used the cellular thermal shift assay (CETSA [36]) in DAOY cells; endogenous in cells; host or cells: DAOY cells (intact cells, or freeze-thaw lysates)
Kind of data set: CETSA by IB, cell lysates. In kind it is binding. The note with it: DAOY lysates. As to the method:
Four 15 cm dishes with 0.5 × 10^6 DAOY cells per dish were grown in full medium o.n. Medium was then removed, cells washed with PBS, detached using trypsin, collected in regular growth medium, centrifuged (300 g, 25 °C, 5 min), washed with PBS and resuspended in 550 µl ice-cold PBS. Cells were lysed with three freeze–thaw cycles (freeze in liquid N2, thaw in 25 °C heat block, vortex quickly) and lysates were placed in aliquots of 250 µl on ice. Compound or solvent was added to 10 µM final concentration and samples were incubated 20 min at 4 °C under rotation. Ten 20 µl aliquots were dispensed in a pre-cooled PCR plate, which was sealed with aluminum foil and placed on ice until heat treatments. Heat treatment was performed in a gradient PCR machine with the following temperatures 40.5, 43.6, 46.2, 48.8. 51.2, 53.8, 56.4, 58.3, 61.7 and 73.8 °C for three min. Plate with samples was kept at RT for 3 min and then kept on ice until centrifugation for 2 min at 500 × g at RT.
Samples were incubated 1 h at 4 °C, with shaking at 500 rpm. Samples are filtered using a MultiScreenHTS HV-Filterplate (Merck, MSHVN4510). Membrane wells were prewetted with 50 µl PBS and centrifuged at 2000 g, RT, 3 min. The lysates were centrifuged at 2000 g, RT, 3 min and 40 µl of each supernatant was transferred to the filterplate and centrifuged at 500 g at RT for 5 min. […]

T1 sequence (Q8WU20 whole entry): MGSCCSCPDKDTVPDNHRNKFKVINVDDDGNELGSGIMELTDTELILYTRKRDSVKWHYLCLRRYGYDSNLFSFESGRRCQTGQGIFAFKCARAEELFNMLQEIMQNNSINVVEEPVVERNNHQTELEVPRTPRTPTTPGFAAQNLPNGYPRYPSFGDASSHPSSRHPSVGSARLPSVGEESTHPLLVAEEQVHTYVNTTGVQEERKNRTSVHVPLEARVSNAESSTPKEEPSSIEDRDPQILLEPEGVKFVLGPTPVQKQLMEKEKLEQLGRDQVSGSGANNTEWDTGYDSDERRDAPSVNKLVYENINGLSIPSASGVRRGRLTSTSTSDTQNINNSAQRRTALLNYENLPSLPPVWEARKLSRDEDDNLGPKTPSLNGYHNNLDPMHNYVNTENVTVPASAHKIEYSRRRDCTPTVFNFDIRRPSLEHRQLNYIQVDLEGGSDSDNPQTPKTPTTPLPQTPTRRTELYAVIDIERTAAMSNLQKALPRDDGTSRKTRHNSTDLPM

Turning to `O=[N+]([O-])c1c(Cl)cc(O)c2c1C1C=CCC1C(c1ccc(Cl)cc1)N2` (stereo not drawn) [Compound 7], the “concentration at which significant reduction of transwell migration was observed” value in the data set with DMS114 worked out at 10 µM. Moreover, the “basal and bFGF-increased transwell migration (result in words)” value with HCT116 is on record as “abolished”. In addition, in data set [1], the “single-dose tolerability (result in words)” value is “No mortality and body weight loss was observed”. Also, the concentration at 0.5 h in data set [2] is 10000 ng/mL and > 20 µM. For the same molecule, in the data set on pFRS2Y436, the “pFRS2 Y436 in tumor tissues by IHC (result in words)” value is given as “No clear difference in pFRS2 Y436”. For the same molecule, the thermal shift (ΔTm) at 10 µM at FRS2 was -4.93 °C.

The ΔTm is the change in melting temperature against a reference sample.
